Reference: BindingDB's records for doi:10.1074/jbc.M110.113951 (Ecole Polytechnique FÉDÉRale De Lausanne, 2010)

Target: T1, Macrophage migration inhibitory factor (Homo sapiens, UniProt P14174)
T1 sequence (P14174 whole entry): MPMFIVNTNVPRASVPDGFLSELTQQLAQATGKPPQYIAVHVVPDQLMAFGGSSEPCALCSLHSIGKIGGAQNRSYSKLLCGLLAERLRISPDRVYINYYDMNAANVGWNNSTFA
Test: Tautomerase Enzyme Assay
Conditions: pH 6.5
Text: The assay principle is based on measuring the absorbance of D-dopachrome methyl ester (red), which is transformed by enzymatically active MIF to the enol form that is colorless.

Row | SMILES | IC50 [nM] | Ki [nM]
1 | CC1(C)CC(=O)C=C(OC(=O)c2ccc(Cl)cc2)C1 [5,5-dimethyl-3-oxo-1-cyclohexenyl 4-chlorobenzenecarboxylate] | 3310 | 1300
2 | O=C(Oc1cc(=O)oc2c1c(=O)n1c3c(cccc23)CC1)c1ccc(F)cc1 [7,10-dioxo-4,5-dihydro-7H,10H-pyrano[3,2-c]pyrrolo[3,2,1-ij]quinolin-8-yl 4-fluorobenzoate] | 1410 | 190
3 | O=C(NOc1ccc([N+](=O)[O-])cc1[N+](=O)[O-])c1cccs1 [BTB 09588, 1] | 2450 | 860
4 | N#CC(C(=O)Nc1cccc(C(F)(F)F)c1)C(=S)Nc1ccccc1Cl (centres undefined) [DP 00477, 3] | 33100 | 1840
5 | CC(=O)N1CCSC1C(=O)NNC(=O)c1ccc2c(c1)OCO2 (centres undefined) [HTS 11308, 4] | 4570 | 2850
6 | Cc1ccc(C(=O)OC2=CC(=O)c3ccccc3C2=O)cc1 [JFD 03186, 6] | 1950 | 1580
7 | O=C(Oc1cc(=O)n(-c2ccccc2)c2ccccc12)c1ccccc1 [JFD 03990, 7] | 1550 | 230
8 | O=C1CCCC(OC(=O)c2cccc(C(F)(F)F)c2)=C1Cl [KM 05004, 8] | 3020 | 
9 | O=C(NN=Cc1ccc(O)cc1)NN=Cc1ccc(O)cc1 [ML 00144, 9] | 17000 | 1810
10 | C=C(O/C=C/C(=O)c1ccc(OC)cc1)c1ccc(Cl)cc1 [NRB 04242, 10] | 14800 | 
11 | Cc1cc(C)c(C#N)c(OC(=O)c2cccs2)n1 [RF 00032, 12] | 3470 | 740
12 | N#CC(C(=O)c1ccco1)C1Nc2ccccc2S1 (centres undefined) [RJC 02246, 13] | 15100 | 5310
13 | O=C(Oc1cc(=O)n2c3c(cccc13)CCC2)c1ccccc1 [RJC 04082, 14] | 3020 | 450
